Measured values published in the NIST ThermoML archive (doi:10.1016/j.jct.2008.03.007).
Numbers after ± are expanded uncertainties.

Columns and labels:
[1] = 101.33 kPa, Liquid, Vibrating tube method
[2] = xn = mol fraction of the nth substance listed; settings: 101 kPa, Liquid; for mass density: Vibrating tube method

CCCCCCCC[N+](C)(CCCCCCCC)CCCCCCCC.O=S(=O)([N-]S(=O)(=O)C(F)(F)F)C(F)(F)F
[1]
Settings	mass density [kg/m3]
298.15 K	1109.3 ± 6.1
303.15 K	1105.1 ± 6.1
313.15 K	1098.3 ± 6.1

CCCCCCCC[N+](C)(CCCCCCCC)CCCCCCCC.O=S(=O)([N-]S(=O)(=O)C(F)(F)F)C(F)(F)F + CO
[2]
Settings	mass density, 298.15 K [kg/m3]	mass density, 303.15 K [kg/m3]	mass density, 313.15 K [kg/m3]	speed of sound, 298.15 K [m/s]
x1 = 0.0336	–	–	–	1097.8 ± 6.4
x1 = 0.0781	958 ± 6	954 ± 6	940 ± 6	–
x1 = 0.1291	999 ± 6	994 ± 6	982 ± 6	1085.4 ± 6.4
x1 = 0.2125	1037 ± 6	1031 ± 6	1022 ± 6	1074.5 ± 6.3
x1 = 0.35	1068 ± 6	1062 ± 6	1055 ± 6	–
x1 = 0.4172	1077 ± 6	1071 ± 6	1064 ± 6	1047.9 ± 6.3
x1 = 0.5362	1089 ± 6	1083 ± 6	1076 ± 6	1032.4 ± 6.2
x1 = 0.6529	1097 ± 6	1092 ± 6	1085 ± 6	–
x1 = 0.6611	–	–	–	1016.1 ± 6.2
x1 = 0.7084	1100 ± 6	1095 ± 6	1088 ± 6	1010 ± 6.2
x1 = 0.8522	1106 ± 6	1102 ± 6	1095 ± 6	991.2 ± 6.2
x1 = 0.9345	1108 ± 6	1104 ± 6	1097 ± 6	–

CCCO [propan-1-ol]
[1]
Settings	mass density [kg/m3]
298.15 K	799.4 ± 6
303.15 K	796.4 ± 6
313.15 K	788.6 ± 6

CCCCCCCC[N+](C)(CCCCCCCC)CCCCCCCC.O=S(=O)([N-]S(=O)(=O)C(F)(F)F)C(F)(F)F + CCCO
[2]
Settings	mass density, 298.15 K [kg/m3]	mass density, 303.15 K [kg/m3]	mass density, 313.15 K [kg/m3]	speed of sound, 298.15 K [m/s]
x1 = 0.0736	919 ± 6	915 ± 6	907 ± 6	1187.7 ± 6.8
x1 = 0.1146	956 ± 6	952 ± 6	944 ± 6	1178.1 ± 6.7
x1 = 0.2152	1011 ± 6	1006 ± 6	999 ± 6	1154.7 ± 6.7
x1 = 0.3303	1045 ± 6	1041 ± 6	1033 ± 6	1127.9 ± 6.6
x1 = 0.4033	1059 ± 6	1055 ± 6	1047 ± 6	1110.9 ± 6.5
x1 = 0.524	1076 ± 6	1072 ± 6	1064 ± 6	1082.8 ± 6.5
x1 = 0.6682	–	–	–	1049.2 ± 6.4
x1 = 0.6882	1091 ± 6	1087 ± 6	1080 ± 6	–
x1 = 0.7833	1098 ± 6	1094 ± 6	1087 ± 6	1022.4 ± 6.3
x1 = 0.8439	1102 ± 6	1097 ± 6	1090 ± 6	1008.3 ± 6.3
x1 = 0.9533	1107 ± 6	1103 ± 6	1096 ± 6	982.9 ± 6.2

CCO [ethanol]
[1]
Settings	mass density [kg/m3]
298.15 K	785.5 ± 6
303.15 K	782 ± 6
313.15 K	773.7 ± 6

CO [methanol]
[1]
Settings	mass density [kg/m3]
298.15 K	786 ± 6
303.15 K	783.4 ± 6
313.15 K	774.6 ± 6

CCCCCCCC[N+](C)(CCCCCCCC)CCCCCCCC.O=S(=O)([N-]S(=O)(=O)C(F)(F)F)C(F)(F)F + CCO
[2]
Settings	mass density, 298.15 K [kg/m3]	mass density, 303.15 K [kg/m3]	mass density, 313.15 K [kg/m3]	speed of sound, 298.15 K [m/s]
x1 = 0.0484	896 ± 6	896 ± 6	883 ± 6	–
x1 = 0.1731	1005 ± 6	1003 ± 6	994 ± 6	1116.1 ± 6.5
x1 = 0.2728	1041 ± 6	1036 ± 6	1029 ± 6	1098.8 ± 6.4
x1 = 0.3353	1055 ± 6	1050 ± 6	1044 ± 6	1087.9 ± 6.4
x1 = 0.4286	1070 ± 6	1063 ± 6	1058 ± 6	1071.6 ± 6.4
x1 = 0.5145	1080 ± 6	1072 ± 6	1068 ± 6	1056.6 ± 6.3
x1 = 0.6307	1090 ± 6	1082 ± 6	1078 ± 6	1036.4 ± 6.3
x1 = 0.7338	1097 ± 6	1090 ± 6	1085 ± 6	1018.4 ± 6.3
x1 = 0.7774	1099 ± 6	1092 ± 6	1087 ± 6	1010.8 ± 6.3
x1 = 0.9393	1107 ± 6	–	–	–
x1 = 0.9493	–	1103 ± 6	1096 ± 6	980.8 ± 6.2
